According to patent US7183054B2, “Assay for identifying biological targets of polynucleotide-binding compounds” (President and Fellows of Harvard College, priority 2003, dated 2007):

Legend:
A375 melanoma = A375 melanoma tumor cell line; cited from earlier work
A549 lung carcinoma = A549 lung carcinoma tumor cell line; cited from earlier work
Human erythrocyte GAPDH = molecular target: T1, Human erythrocyte GAPDH (Homo sapiens, UniProt P04406); assay: Southwestern blot of GAPDH with 32P-labeled dsDNA-drug complexes; format: binding; settings: membrane probed with 32P labeled DNA alkylated with drug
T1 construct: Human erythrocyte GAPDH (Sigma 6019) was dissovled in ddH2O; purchased Sigma 6019 (G6019); host or cells: human erythrocytes
T1 sequence (P04406 whole entry): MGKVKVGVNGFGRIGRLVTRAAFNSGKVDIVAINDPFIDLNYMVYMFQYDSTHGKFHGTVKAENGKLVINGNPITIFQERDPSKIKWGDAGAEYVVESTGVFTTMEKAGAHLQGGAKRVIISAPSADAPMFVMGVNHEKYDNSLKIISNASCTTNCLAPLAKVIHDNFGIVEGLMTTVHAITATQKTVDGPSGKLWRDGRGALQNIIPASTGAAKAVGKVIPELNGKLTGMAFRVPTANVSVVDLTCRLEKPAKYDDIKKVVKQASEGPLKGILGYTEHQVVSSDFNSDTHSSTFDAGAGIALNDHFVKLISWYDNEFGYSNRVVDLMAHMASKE
Method: FIG. 5 depicts the Southwestern blot technique using GAPDH and saframycins. FIG. 5A is a schematic of the Southwestern blot technique. […] The membranes with GAPDH were incubated with the various ^32P-labeled dsDNA-drug complexes. Lane 1: free dsDNA control; Lane 2: HQ alkylated dsDNA; Lane 3: QAD alkylated dsDNA; Lane 4: Pt 650 alkylated dsDNA; Lane 5: SafA alkylated dsDNA.
(§1) Construction of Drug-based Affinity Resin. The amino-modified QAD and its hemiaminal derivative, amino-modified HQ was prepared by coupling SafA synthetic intermediate^11 with 6-(4-Fmoc-amino-n-butoxy)-quinaldic acid followed by Fmoc deprotection. The amino-modified QAD/HQ was purified by reverse-phase HPLC and coupled to AffiGel-15. […] The amount of drug coupled to the affinity resin was determined by quantifying the drug that remained in the supernatant using reverse-phase HPLC. […] The supernatant solution was analyzed by reverse-phase HPLC. The amount of ds-oligonucleotide detected in the supernatant from the heating step was taken to be the amount of ds-oligonucleotide coupled to drug on the affinity resin in the form of stable dsDNA-drug binary complex. […] The concentration of double-stranded 21-mer DNA on the resin was determined by heat denaturing the double strand DNA on a known amount of resin and subsequently determining the concentration of complementary strand in free solution by UV spectrometry. […]

GAPDH [1] = molecular target: T2, GAPDH (Bos taurus, UniProt P10096); assay: Affinity chromatography with drug-alkylated dsDNA resin in bovine brain lysate (GAPDH); format: binding; settings: ds-oligonucleotide resin alkylated with drug; bovine brain lysate, 4° C.; silver-stained SDS-PAGE
T2 construct: from tissue; host or cells: bovine brain homogenate
T2 sequence (P10096 2-333): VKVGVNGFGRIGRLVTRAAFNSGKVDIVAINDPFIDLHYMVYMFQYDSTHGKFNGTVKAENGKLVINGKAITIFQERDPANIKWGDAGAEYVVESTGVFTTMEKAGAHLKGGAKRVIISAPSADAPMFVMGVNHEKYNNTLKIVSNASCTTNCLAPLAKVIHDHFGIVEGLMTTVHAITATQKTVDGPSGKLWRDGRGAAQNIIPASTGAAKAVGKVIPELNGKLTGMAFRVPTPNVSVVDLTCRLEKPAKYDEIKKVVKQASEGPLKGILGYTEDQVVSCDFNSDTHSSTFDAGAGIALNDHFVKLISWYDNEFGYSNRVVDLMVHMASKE

GAPDH [2] = assay: as above; format: binding; settings: summary statement
A549 cells = assay: GI50 in GAPDH siRNA transfected A549 cells (MTS); format: cell-based; settings: 72 hours drug exposure
HMG1 = molecular target: T3, HMG1 (Bos taurus, UniProt P10103); assay: Affinity chromatography with drug-alkylated dsDNA resin in bovine brain lysate (HMG1); format: binding; settings: ds-oligonucleotide resin alkylated with drug; pre-cleared bovine brain lysate
T3 construct: from tissue; host or cells: bovine brain homogenate
T3 sequence (P10103 1-215): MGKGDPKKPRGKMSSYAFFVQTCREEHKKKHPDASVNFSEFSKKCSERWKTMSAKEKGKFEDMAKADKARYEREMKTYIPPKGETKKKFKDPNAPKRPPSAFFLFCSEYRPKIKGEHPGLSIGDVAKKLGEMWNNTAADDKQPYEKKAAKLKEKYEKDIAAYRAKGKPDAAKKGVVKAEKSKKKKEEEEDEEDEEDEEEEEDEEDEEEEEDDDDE
Method: FIG. 4 is a photograph of a silver-stained SDS-PA gel showing the affinity chromatography results. The affinity matrix was incubated in bovine brain lysate at 4° C., washed extensively, and heat denatured to release bound proteins. […]
as §1, with “Resin.” for “Resin. The amino-modified QAD and its hemiaminal derivative, amino-modified HQ was prepared by coupling SafA synthetic intermediate^11 with 6-(4-Fmoc-amino-n-butoxy)-quinaldic acid followed by Fmoc deprotection. The amino-modified QAD/HQ was purified by reverse-phase HPLC and coupled to AffiGel-15.”

| SMILES | IC50 (A375 melanoma) [nM] | IC50 (A549 lung carcinoma) [nM] | radioactivity at GAPDH protein band (Human erythrocyte GAPDH) | binding of 37-kDa protein (GAPDH) to drug-dsDNA binary complex (GAPDH [1]) | cellular target found (GAPDH [2]) | GI50 change in GAPDH siRNA transfected cells vs control siRNA (A549 cells) | GI50 change in GAPDH siRNA transfected cells vs control siRNA (A549 cells; listed as cis-platin) | binding of 31-kDa protein (HMG1) to drug-dsDNA binary complex (HMG1) |
| --- | --- | --- | --- | --- | --- | --- | --- | --- |
| COC1=C(C)C(=O)C2=C(C1=O)[C@@H]1[C@@H]3CC4=C(C(=O)C(OC)=C(C)C4=O)[C@H](CNC(=O)C(C)=O)N3[C@@H](C#N)[C@H](C2)N1C [(−)-Saframycin A] | 5.3 | 133 | radioactivity was detected | bind specifically | target cellular GAPDH | – | – | – |
| COc1cc2c(cc1O)CCN[C@]21CS[C@@H]2c3c(OC(C)=O)c(C)c4c(c3[C@H](COC1=O)N1[C@@H]2[C@H]2c3c(cc(C)c(OC)c3O)C[C@@H]([C@@H]1O)N2C)OCO4 [Ecteinascidin 743] | 0.15 | 1 | – | – | target cellular GAPDH | – | – | – |
| COc1c(C)cc2c(c1O)[C@@H]1[C@@H]3Cc4c(OC(C)=O)c(C)c5c(c4[C@H](CN4C(=O)c6ccccc6C4=O)N3[C@@H](C#N)[C@H](C2)N1C)OCO5 [Pt 650, phthalascidin] | – | – | radioactivity was detected | bind specifically | – | – | – | – |
| N.N.[Cl][Pt][Cl] [cisplatin] | – | – | – | did not bind | – | nearly the same sensitivity | unchanged | bind specifically |
| N.N.[Cl][Pt+2][Cl] [transplatin] | – | – | – | did not bind | – | – | – | did not recruit any protein |
